Source: patent US9119823B2 (priority 2008, dated 2015)
Like-named read-outs stand apart in the source and are kept apart here.

Legend:
[1] = tested on: nitric oxide synthase (NOS); conditions: read-out: Michaelis constant (KM) for substrate; cited from earlier work
[2] = in vivo; cited from earlier work
[3] = adults; cited from earlier work
[4] = cited from earlier work
[5] = man, cited from earlier work
[6] = low NOx diet
[7] = cited from earlier work; for half life of nitrite in whole blood: human whole blood
[8] = cited from earlier work; remark: listed apart in the source
[9] = tested on: lesion formation on the abdominal aorta; conditions: 50 mg/L nitrite for 12 weeks, high fat diet
Excerpt: Although the LDb mice spontaneously develop atherosclerosis on normal rodent chow, the addition of a high fat diet will accelerate the process from 8 months to 12 weeks.

[10] = tested on: myocardial ischemia/reperfusion (I/R) injury
[11] = tested on: myocardial ischemia/reperfusion injury; conditions: eNOS-/- mice, low NOx diet, 50 mg/L nitrite, 30 minutes ischemia and 24 hour reperfusion
[12] = two year study, male or female rats; cited from earlier work
[13] = two year study, male or female mice; cited from earlier work
[14] = 50 mg/L nitrite in the drinking water for 7 days
Excerpt: Enzymatic NO insufficiency is a hallmark of a number of diseases including cardiovascular disease. […] The mice were fed standard rodent chow or low NOx diet.

tissue homogenates = conditions: at 0.5% oxygen; cited from earlier work
[15] = 50 mg/L nitrite in the drinking water for 1 week

N=C(N)NCCC[C@H](N)C(=O)O [L-arginine]
Km [1]: 2.9 µM

O=[N+]([O-])[O-].[Na+] [nitrate, sodium nitrate]
circulating half life of nitrate [2]: 300 to 480 min
clearance of nitrate from blood to urine [3]: Approximately 20 ml/min
ingested nitrate actively taken up by the salivary glands ([4]; excreted in the saliva): ≤ 25%
salivary nitrate reduced to nitrite by bacteria in the mouth ([4]; in vivo): Approximately 20%
poisoning, total oral daily dose ([5]; oral): > 4 g
dose generally fatal [5]: 13 to 15 g
dose that may be fatal [5]: 8 g
poisoning, single dose [5]: more than 1 g

O=NO [nitrite, sodium nitrite]
plasma and heart nitroso levels [6, 15]: replenished and increased
plasma and heart steady-state nitrite and nitrate concentrations [6, 15]: restored
nitrosyl-heme products ([6]; nitrite supplementation in the drinking water): replenished
half-life of nitrite in the circulation ([7]; circulation): 1.83 min
half life of nitrite in whole blood [7]: 1.83 min
half life of nitrite in whole blood ([7]; listed as NO2^−): about 110 seconds
fatal dose ([8]; in humans): 22 to 23 mg/kg
fatal dose of nitrite ([8]; in vivo): 22-23 mg/kg body weight
less lesion formation on the abdominal aorta than control group [9]: 20%
survival 24 hours post-myocardial infarction ([10]; low NOx diet with nitrite-supplemented drinking water): 76.9%
reversal of the increased myocardial infarct size ([10]; low NOx diet, 50 mg/L sodium nitrite ad libitum in the drinking water): 57%
protection from myocardial ischemia/reperfusion injury [11]: protected
carcinogenic activity [12]: no evidence of carcinogenic activity
carcinogenic activity [13]: no evidence of carcinogenic activity
plasma and cardiac nitroso in eNOS-/- mice [14]: above C57 control levels
plasma nitrite in eNOS-/- mice [14]: restores

O=O [oxygen]
inhibition of nitrite reduction (tissue homogenates): 80%
